Experiments:
human recombinant COX II = biological target: T1, human recombinant COX II (Homo sapiens, UniProt P35354); assay: COX II biochemical assay (3H-arachidonic acid conversion, TLC quantitation); details: read-out: Percent Inhibition of COX II
T1 construct: purchased Oxford Chemical
T1 sequence (P35354 18-604): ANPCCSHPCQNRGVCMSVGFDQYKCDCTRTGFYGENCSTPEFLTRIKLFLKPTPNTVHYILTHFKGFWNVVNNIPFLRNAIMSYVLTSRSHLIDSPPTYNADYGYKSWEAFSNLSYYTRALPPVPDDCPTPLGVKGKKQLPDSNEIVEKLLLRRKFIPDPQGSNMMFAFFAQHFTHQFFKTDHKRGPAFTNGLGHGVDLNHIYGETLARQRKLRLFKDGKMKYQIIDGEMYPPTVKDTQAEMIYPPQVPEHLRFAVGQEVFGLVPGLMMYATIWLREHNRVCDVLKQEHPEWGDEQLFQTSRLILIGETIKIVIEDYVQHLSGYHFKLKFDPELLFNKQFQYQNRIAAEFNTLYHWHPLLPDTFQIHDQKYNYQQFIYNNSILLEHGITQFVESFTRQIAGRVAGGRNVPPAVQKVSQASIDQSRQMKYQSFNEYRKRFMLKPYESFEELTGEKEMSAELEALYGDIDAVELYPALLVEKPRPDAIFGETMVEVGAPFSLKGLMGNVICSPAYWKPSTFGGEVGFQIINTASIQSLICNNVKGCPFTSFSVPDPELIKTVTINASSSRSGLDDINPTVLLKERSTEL
Procedure: Two units of recombinant COX II enzyme (corresponding to 0.8 ug total protein) was added followed by 5 uL aliquots of the peat bog extracts yielding a final concentration of the peat extracts of 25 ug/ml. All samples were run in duplicate. […] Reactions were initiated by the addition of ^3H-arachidonic acid (DuPont-NEN) at a final concentration of 50 uM. The reactions were maintained for 5 minutes at 37° C. and stopped by the addition of ice-cold methanol/acetic acid (10:1 v/v).
The assessment of cyclooxygenase activity (both COX I and II) in the presence and absence of the peat bog extracts was based on the quantitation of tlhe radiolabeled arachidonic acid metabolites prostaglandin A2 (PGA2), PGE2, and PGF2-alpha. To do this, a 50 uL sample of each reaction solution was separated via TLC on LK6DF silica plates co-spotted with arachidonic acid, PGA2, and PGF2-alpha and developed in hexane/isopropyl alcohol/ acetic acid (85:15:1 v/v). The bands were visualized by UV-vis or I2 staining and scraped into scintillation vials for quantitation. […] The total enzyme activity (At), the corrected enzyme activity in the presence of an inhibitor (Ai), and % inhibition were calculated by the following equations:
3) Percent Inhibition=100 (1−Ai/ At)

[1] = test system: human keratinocyte PGE2 production; assay: Cell-based COX II assay: PGE2 production by cultured human foreskin keratinocytes (enzyme immunoassay); details: 5, 1.0, 0.2 and 0.04 uM, 24 hours, high calcium medium
Procedure: The ability of dehydroabietic acid methyl ester to inhibit the enzymatic activities of COX II and 5-LO was tested using primary cultures of human foreskin keratinocytes. Briefly, human keratinocytes were plated in 48-well plates (Nunc) at an initial density of 2.5×10^4 cells per well. The cultures were maintained in medium 154XP (Cascade Biologics) to which human keratinocyte growth supplement (Cascade Biologics) was added. Cultures were plated initially in medium 154XP containing 0.07 mM CaCl2. Upon reaching […] confluency, the media was exchanged with high calcium medium 154XP containing 1.2 mM CaCl2. Previous studies have shown that an increase in extracellular Ca^2+concentration induces the differentiation of cultured keratinocytes with a concomitant increase in the expression of COX II protein and COX II mRNA with no apparent effect on COX I expression (Leong, J., Hughes-Fulford, M., Rakhlin, A., Maclouf, J., and Goldyne, M., (1996), Exp. Cell Res., V224, p79). Twenty-four hours after switching to the high calcium media, duplicate wells were treated with dehydroabietic acid methyl ester serially diluted in ethanol to produce final concentrations of 5, 1.0, 0.2, and 0.04 uM. Companion cultures were treated with an identical dilution series of the Merck COX II-specific inhibitor DFU. Twenty-four hours later, samples were removed from each treated well (as well as vehicle-treated control wells) and the amount of PGE2 (a product of the COX II pathway) was quantified using a PGE2-specific enzyme immunoassay (Cayman Chemical). ), As was done with the previously described biochemical assays (COX I, COX II, 5-LO, and 15-LO), the percent inhibition was calculated based on a comparison between vehicle treated control cultures and cultures treated with dehydroabietic acid methyl ester or DFU (see Fractionation and Bioassay Analysis of Fractions Derived from Extract-8 above).
The ability of 4-cumylphenol to inhibit the enzymatic activity of COX II was tested using primary cultures of human foreskin keratinocytes. These cell studies were performed in an identical manner to the studies described in Example 6. […] Twenty-four hours later, samples were removed from each treated well (as well as vehicle-treated control wells) and the amount of PGE2 (a product of the COX II pathway) was quantified using a PGE2-specific enzyme immunoassay (Cayman Chemical). ), as was done with the previously described COX I, COX II, and 15-LO biochemical assays (see Example 2B). The percent inhibition was calculated based on a comparison between vehicle treated control cultures and cultures treated with 4-cumylphenol or DFU. […]
To evaluate the biological activities of 3-methoxy aniline, sufficient quantities of the compound were synthesized as detailed in Example 1C (above). […]

human keratinocytes [2] = assay: Lactate dehydrogenase (LDH) release toxicity assay; assay type: cell-based; details: highest value of any culture treated with 5, 1.0, 0.2 or 0.04 uM
Procedure: To address the possibility that the inhibition of both PGE2 and LTB4 production by human keratinocytes treated with dehydroabietic acid methyl ester was […], a cell lactate dehydrogenase toxicity assay (Fisher Scientific) was performed. Briefly, lactate dehydrogenase (LDH) is found intracellularly and is released only in response to toxic stimuli and/or cell death. The amount of LDH released into the media of cultured cells is indicative of the degree of toxicity occurring in that culture. To do the assay, 48-well plates of cultured human keratinocytes (as described above for the PGE2 assay) were prepared and treated with the same concentrations of dehydroabietic acid methyl ester as described above for the PGE2 and LTB4 assays. One hour prior to harvesting culture media samples from wells treated with dehydroabietic acid methyl ester, duplicate wells were treated with a cell lysis buffer (Fisher Scientific) that caused 100% cell death to occur in the treated wells. After culture media samples were collected from all wells, the amount of LDH present in each was determined using a colorometric assay (Fisher Scientific). […] The amount of LDH released into the media of cultures treated with dehydroabietic acid methyl ester as well as vehicle-control media was determined using the colorometric assay and expressed as a percentage of that released by the 100% cell death wells.
To address the possibility that the inhibition of PGE2 production by human keratinocytes treated with 4-cumylphenol was due to toxicity, a cell lactate dehydrogenase toxicity assay (Fisher Scientific) was performed. […] After culture media samples were collected from all wells, the amount of LDH present in each was determined using a colorometric assay (Fisher Scientific). […] The amount of LDH released into the media of cultures treated with dehydroabietic acid methyl ester as well as vehicle-control media was determined using the colorometric assay and expressed as a percentage of that released by the 100% cell death wells. […]

human keratinocytes [3] = assay: Microscopic examination of treated keratinocyte cultures; assay type: cell-based
[4] = test system: human keratinocyte LTB4 production; assay: Cell-based 5-LO assay: LTB4 production by cultured human keratinocytes (enzyme immunoassay); details: 5, 1.0, 0.2 and 0.04 uM, 24 hours, high calcium medium
Text: In addition to assessing the effect of dehydroabietic acid methyl ester on the production of PGE2 by human keratinocytes, the human keratinocyte culture system was also used to assess for the inhibition of LTB4 production. Keratinocytes have not been used as extensively as other cell types for 5-LO studies, however, human keratinocytes produce appreciable amounts of LTB4 and production of this eicosanoid by cultured keratinocytes is inhibited by known inhibitors of 5-LO (see FIG. 11). To assess for inhibition of LTB4 production, human keratinocytes were cultured as described above. Following introduction of the high calcium media, the identical dilution series of dehydroabietic acid methyl ester as described above in the PGE2 study was added to duplicate wells of keratinocytes. Twenty-four hours later culture media samples were removed from each well and the amount of LTB4 in each sample determined using an enzyme immunoassay specific for LTB4 (Cayman Chemical). As was done with the PGE2 assay described above, the percent inhibition was calculated based on a comparison between vehicle treated control cultures and cultures treated with dehydroabietic acid methyl ester or Rev 5901 (a specific 5-LO inhibitor; Cayman Chemical).

CS(=O)(=O)Nc1ccc([N+](=O)[O-])cc1Oc1ccccc1 [Nimesulide, reference compound]
inhibition at 250 µM (human recombinant COX II): 13.3%

COc1cccc(NC(=O)C(C)(C)C)c1 [Fraction 3-M-A, propanamide, N-(3-methoxyphenyl)2,2-dimethyl]
inhibition of PGE2 production by cultured human keratinocytes [1]: inhibited the production of PGE2
percent toxicity (LDH released) versus the 100% cell death control (human keratinocytes [2]): ≤ 10%
toxicity when treated cultures were examined microscopically (human keratinocytes [3]): lack of toxicity

CCCCCC(O)c1cccc(OCc2ccc3ccccc3n2)c1 (stereo not drawn) [REV 5901, reference compound]
inhibition of LTB4 production by cultured human keratinocytes [4]: dose-dependent inhibition

CC1(C)OC(=O)C(c2cccc(F)c2)=C1c1ccc(S(C)(=O)=O)cc1 [DFU, reference compound]
inhibition of PGE2 production by cultured human keratinocytes [1]: Dose-dependent inhibition

Reference: patent US6365634B1, “Naturally occurring compounds and their derivatives as cyclooxygenase 2 and/or 5-lipoxygenase inhibitors” (C-P Technology Limited Partnership, priority 1997, dated 2002)
